# Measurements as given in patent US12098395B2, “Polypeptide with function of targeting recognition of immune cells and application thereof” (Keyangle Life Technology Co., Ltd., priority 2018, dated 2024).
# No end group written: not given here. code X = not defined here
# Experiments:
# [1] = system: macrophages on mouse abdominal wall; assay: In vivo fluorescent labeling of macrophages on mouse abdominal wall with CD68 antibody co-staining; conditions: in vivo injection, abdominal wall muscle removed
# Experimental: Referring to Example 4, using the same drug injection process, inject EK24, and FITC anti-mouse CD68 antibody (Biolegend) which was diluted with PBS from 2 μL to 500 μL. Remove mouse abdominal wall muscle for Nucblue double-staining and then observing under a fluorescence microscope (20×, light source 50%, exposure 200 ms, gain 5).
# [2] = system: mouse peritoneal macrophages; assay: In vivo fluorescent labeling of macrophages in a mouse abdominal cavity; parameters: species or system Kunming mice; conditions: for recognition of macrophages in vivo: conclusion from Table 1, mouse peritoneal macrophages; for fluorescent labeling of macrophages extracted from the mouse abdominal cavity: labeled in vivo by intraperitoneal injection, cells extracted after 4 hours, Nucblue double-stain
# Experimental: Dilute 300 μL of 50 μM EK24 fluorescent probe solution with serum-free DMEM incomplete medium to obtain 1 mL of solution, then inject into the abdominal cavity of 5-8 weeks old Kunming mice. After 4 hours, inject 5 mL of 1×PBS and massage. After 10 minutes, sacrifice the mice by cervical vertebra dislocation. Cut the abdominal cavity skin of the mice, pierce the abdominal wall muscle by a syringe, and extract the fluid in the abdominal cavity of the mice. Centrifuge the extracted peritoneal fluid at 1000 rpm for 5 min, wash twice with 1×PBS. Add appropriate amount of cells to a 96-well plate and double-stain with a nuclear dye Nucblue (Invitrogen). Observe under fluorescence microscope (light source 10%, exposure 200 ms, gain 5) after the suspended cells were settled down at the bottom of the plate.
# Table 1 lists probes, which contain the polypeptide fragments from the C-terminal fragments of Triokinases/FMN cyclases of different species and were prepared by a similar process as described in Examples 1 and 2, and in vivo imaging results of mouse peritoneal macrophages using these probes.
# [3] = system: bone marrow monocyte precursors of New Zealand White Rabbit; assay: In vitro fluorescent labeling of primary monocyte precursors of New Zealand White Rabbit; format: cell-based
# From the text: With a similar process to Example 7, bone marrow monocyte precursors of New Zealand White Rabbit were taken and cultured, then labeled by using EK24 fluorescent probe and Nucblue. Then the cells were observed under a fluorescence microscope (20×, light source 10%, exposure 200 ms, gain 5).
# [4] = system: monocyte precursors from rat bone marrow; assay: In vitro fluorescent labeling of rat primary monocyte precursors; format: cell-based
# From the text: With a similar process to Example 7, mononuclear cell precursors from rat femoral bone marrow were taken and cultured, and then labeled by using EK24 fluorescent probe and Nucblue. Then the cells were observed under a fluorescence microscope (20×, light source 10%, exposure 200 ms, gain 5).
# [5] = system: cultured peritoneal macrophages and mesenteric digestive cells; assay: Selective labeling of cultured peritoneal macrophages among cells released from enzyme-digested mesenterium; format: cell-based, Kunming mice; conditions: peritoneal cells and trypsin-digested mesenteries cultured 3 days
# Experimental: Take 5 to 8 week-old Kunming mice, inject intraperitoneally with 5 mL of serum-free DMEM incomplete medium. After 1 hour, sacrifice the mice by cervical vertebra dislocation. Make an incision on the skin of abdominal cavity, pierce the abdominal wall muscle using a syringe, and extract the fluid in the abdominal cavity of the mice. Wash twice with 1×PBS, collect peritoneal cells by centrifugation. Also take the mesenteries of the Kunming mice and purge twice with 1×PBS in centrifuge tubes. Incubate the obtained peritoneal cells and mesenteries in 0.25% trypsin solution and digest for 30 minutes. Enrich the cells by centrifugation, and then culture for 3 days in a 96-well plate using F12/DMEM culture solution containing 10% FBS and 1% streptomycin-penicillin. Referring to Example 5, label with the EK24 fluorescent probe and Nucblue. Then the cells were observed under a fluorescence microscope (20×, light source 10%, exposure 200 ms, gain 5).
# [6] = system: primary macrophages from rat peritoneal cavity; assay: In vitro fluorescent labeling of primary macrophages from rat peritoneal cavity; format: cell-based, SD rats; conditions: cultured more than 2 days
# Experimental: With the same process as in Example 5, extract cells from the abdominal cavity of 5 to 8 weeks old SD rats using 20 mL serum-free DMEM incomplete medium and culture the cells in a 96-well plate. After culturing for more than 2 days, until the cells attached the bottom firmly, a well was selected and added with EK24 fluorescent probe for incubation. Then the cells were observed under a fluorescence microscope (20×, light source 10%, exposure 200 ms, gain 5).
# [7] = system: mouse macrophage cell line RAW264.7; assay: In vitro fluorescence labeled staining of a mouse macrophage cell line; format: cell-based; conditions: 10 μM probe, 1 h incubation
# Experimental: Culture the mouse macrophage cell line RAW264.7 in a 96-well plate, wash the wells once with 1×PBS buffer or a serum-free DMEM incomplete medium, remove the washing liquid, add EK24 solution of 10 μM which had been diluted with 100 μL of serum-free DMEM incomplete medium, and incubate in a cell culture incubator for 1 h. After that, wash the wells twice with 1×PBS buffer or the serum-free DMEM incomplete medium. Then, add DMEM complete medium containing 10% FBS and 1% streptomycin-penicillin, and double-stain the cells using nuclear dye Nucblue, and observe under EVOS® FL Auto fluorescence microscope (Life Technologies, light source 10%, exposure 200 ms, gain 5).
# [8] = system: cultured macrophages isolated from mouse peritoneal cavity; assay: In vitro fluorescent labeling of cultured macrophages isolated from mouse peritoneal cavity, co-staining with F4/80 antibody; format: cell-based; conditions: 10 μM EK24 premixed with F4/80 antibody, 1 h at 37° C.
# Experimental: Inject 5 mL of serum-free DMEM incomplete medium into the abdominal cavity of 5 to 8 weeks old mice, massage the abdominal cavity gently for 10 min, and sacrifice the mice by cervical vertebra dislocation. Extract the fluid from the abdominal cavity gently with a syringe, inject into a 5 mL centrifuge tube and centrifuge at 1000 rpm for 5 min, remove the supernatant, and resuspend the collected ex-vivo cells in DMEM/F12 medium containing 10% FBS, then add into a 96-well plate for culture. Generally, if cells are taken intraperitoneally for in vitro culture, macrophages would tend to adhere to bottom of the well, and other cells would be washed off. The cells were cultured for more than 2 days until the cells attached the bottom firmly. At this time, the cells remaining in the wells were basically macrophages. Select two wells, one as a control and the other as an experimental well. The cells of the control were nuclear stained with Nucblue. The experimental well was added with a premix of AlexaFluor®488 anti-mouse F4/80 antibody (Biolegend) and EK24 fluorescent probe, and then incubated for 1 h at 37° C. The premix contained 10 μM of EK24 solution and 2 μL of Alexa Fluor®488 anti-mouse F4/80 antibody diluted with 100 μL of serum-free DMEM incomplete medium. […] The cells were observed under a fluorescence microscope (20×objective lens, light source 10%, exposure 200 ms, gain 5).
# [9] = system: monocyte precursors from mouse bone marrow; assay: Fluorescence labeling of mouse primary monocyte precursors at different incubation times; format: cell-based; conditions: incubating only for 10 min
# Experimental: Referring to Example 7, using the same treatment process, the monocyte precursors from mouse bone marrow were obtained. After culturing for 6 days, the cultured cells were labeled with […] fluorescent probe over different incubation times. Then the cells were observed under a fluorescence microscope (20×, light source 20%, exposure 200 ms, gain 5).
# Nucblue was further used for nuclear staining. In each of FIGS. 18A, 18B, 18C, and 18D, i) is an image labeled with the […] fluorescent probe (shown in red in the original fluorescence color image), and ii) is an image obtained by nuclear staining with Nucblue (shown in blue in the original fluorescence color image), and iii) is a merged image of i) and ii).
Substance,recognition of macrophages in vivo [2],fluorescent labeling of macrophages extracted from the mouse abdominal cavity [2],also measured
"EQPDPGAVAAAAILRAILEVLQS-Y (not fully specified (C-terminus)) [EK24, Human/rhesus Triokinase/FMN cyclase C-terminal peptide; Y is lysine plus rhodamine fluorescent labeling group on the lysine side chain]",can effectively recognize macrophages in vivo,can be labeled,labeling of macrophages on mouse abdominal wall [1]: can be labeled; labeling of other cells of mouse abdominal wall [1]: cannot be labeled; labeling of monocyte precursors from New Zealand White Rabbit bone marrow mesenchyme [3]: capable of labeling; labeling of monocyte precursors from rat bone marrow mesenchyme [4]: capable of labeling; staining of macrophages in mixed culture [5]: only stains macrophages; staining of non-macrophages in mixed culture [5]: not stain non-macrophages; labeling of in vitro cultured primary macrophages from rat peritoneal cavity [6]: can effectively label; fluorescent labeling of RAW264.7 cells [7]: can be labeled; co-localization of probe label with F4/80 antibody label [8]: co-localized on the same cells
"LEQPDPGAVAAAAILRAILE-Y (LEQPDPGAVAAAAILRAILEY; also: C-terminal reporter Y, nature not defined) [LEK21, Human Triokinase/FMN cyclase C-terminal peptide probe, Y = reporter or cysteine/lysine + reporter]",can effectively recognize macrophages in vivo,can be labeled,
"LQPDPGAVAAAAVLRAVLEGLQG-Y (LQPDPGAVAAAAVLRAVLEGLQGY; also: C-terminal reporter Y, nature not defined) [LK24, Chicken Triokinase/FMN cyclase C-terminal peptide probe, Y = reporter or cysteine/lysine + reporter]",can effectively recognize macrophages in vivo,can be labeled,
"X-DQPDPGAVAAAAIFRAILEVLQTKAA ({code X}-DQPDPGAVAAAAIFRAILEVLQTKAA; reading uncertain; also: N-terminal reporter X, nature not defined) [r-KA27, Rat Triokinase/FMN cyclase C-terminal peptide probe, X = reporter or cysteine/lysine + reporter]",can effectively recognize macrophages in vivo,can be labeled,
"X-DQPDPGAVAAAAILRAILEVLQSQGA ({code X}-DQPDPGAVAAAAILRAILEVLQSQGA; reading uncertain; also: N-terminal reporter X, nature not defined) [b-KA27, Pig and cattle Triokinase/FMN cyclase C-terminal peptide probe, X = reporter or cysteine/lysine + reporter]",can effectively recognize macrophages in vivo,can be labeled,
"X-DQPDPGAVAAAAILRTILEVLQSQGV ({code X}-DQPDPGAVAAAAILRTILEVLQSQGV; reading uncertain; also: N-terminal reporter X, nature not defined) [d-KV27, Dog Triokinase/FMN cyclase C-terminal peptide probe, X = reporter or cysteine/lysine + reporter]",can effectively recognize macrophages in vivo,can be labeled,
"X-EDQPDPGAVAAAAILRAILEVLQS ({code X}-EDQPDPGAVAAAAILRAILEVLQS; reading uncertain; also: N-terminal reporter X, nature not defined, printed as X-EDQPDPGAVAAAAILRAILEVLQS) [KS24, Human Triokinase/FMN cyclase C-terminal peptide probe, X = reporter or cysteine/lysine + reporter (rhodamine or FITC)]",can effectively recognize macrophages in vivo,can be labeled,fluorescence detection with microscope [9]: can be even detected
"X-KNMEAGAGRASYISSARLEQPDPGAVAAAAILRAIL ({code X}-KNMEAGAGRASYISSARLEQPDPGAVAAAAILRAIL; reading uncertain; also: N-terminal reporter X, nature not defined) [KnNL36, Human Triokinase/FMN cyclase C-terminal peptide probe, X = reporter or cysteine/lysine + reporter]",can effectively recognize macrophages in vivo,can be labeled,
"X-TKNMEAGAGRASYISSARLEQPDPGAVAAAAILRAILEVLQS ({code X}-TKNMEAGAGRASYISSARLEQPDPGAVAAAAILRAILEVLQS; reading uncertain; also: N-terminal reporter X, nature not defined) [TS42, Human Triokinase/FMN cyclase C-terminal peptide probe, X = reporter or cysteine/lysine + reporter]",can effectively recognize macrophages in vivo,can be labeled,
